Experiment: Binding affinity to Hsp70 nucleotide binding domain in human BT474 cells

IC50: 10.4 µM
Structure (SMILES): N#Cc1ccc(COC[C@H]2O[C@@H](n3c(NCc4ccc(Cl)c(Cl)c4)nc4c(N)ncnc43)[C@H](O)[C@@H]2O)cc1 [adenosine-derived inhibitor (Grp78), 13]
